According to patent US20200131176A1, “SELECTIVE INHIBITORS OF CLINICALLY IMPORTANT MUTANTS OF THE EGFR TYROSINE KINASE” (CS Pharmatech Limited, priority 2017, published 2020):
Where two headings read alike, the source gives them in different places.

How the values were obtained:
[1] = molecular target: T1, L858R/T790M double mutant EGFR in H1975 cells (Homo sapiens, UniProt P00533, L858R/T790M); test: L858R/T790M double mutant H1975 autophosphorylation inhibition assay (ELISA); format: cell-based; conditions: cellular EGFR autophosphorylation, H1975, 2 h treatment; read-out: DM (H1975) IC50
T1 construct: endogenous in cells; host or cells: H1975 cells

[2] = molecular target: T2, Exon 19 deletion EGFR (activating single mutant) in PC-9 cells (Homo sapiens, UniProt P00533, DEL746-750); test: Exon 19 deletion EGFR PC-9 cellular autophosphorylation assay (p-EGFR ELISA); format: cell-based; conditions: PC9, 2 h treatment, read-out: SM (PC9) IC50
T2 construct: cellular phosphorylation of endogenous p-EGFR; host or cells: PC9 (PC-9) human lung cell line
Description: The human lung cell line PC9 (Exon 19 deletion EGFR) were obtained from the American type Culture Collection. […] Cells were grown in a humidified incubator at 37° C. with 5% CO2, Assays to measure cellular phosphorylation of endogenous p-EGFR in cell Iysates were carried out according to the protocol described in the R&D Systems DuoSet IC Human Phospho-EGF R ELISA (R&D Systems catalogue number # DYCI095). 40 μL of cells were seeded (10000 cells/well) in growth medium in Coming black, clear-bottomed 384-well plates and incubated at 37° C. with 5% CO2 overnight. […] Plates were incubated for a further 2 h, then following aspiration of medium, 40 μL× lysis buffer is added to each well. Greiner black high bind 384 well plates were coated with capture antibody and then blocked with 3% BSA. Following removal of block, 15 μL of lysate are transferred to the Greiner black high bind 384 well plates and incubated for 2 hours. Following aspiration and washing of the plates with PBS, 20 μL of detection antibody were added and incubated for 2 hours. […] The data obtained with each compound are exported into a suitable software package (such as Origin) to perform curve fitting analysis.

[3] = molecular target: hERG channel (HEK 293 cell line stably expressing hERG channel) (Homo sapiens, UniProt Q12809); test: cell-based
[4] = Mouse in vivo PK study; conditions: male CD1 mice, 1 mg/kg IV
Description: To determine the drug concentration in plasma of the compounds of the present disclosure following intravenous and oral administration in male CD 1 Mice, pharmacokinetic profile and PK parameters were obtained.
Test animals: healthy male CD1 mice (body weight 20-30 g, 18 mice, free access to food and water), provided by Sibeifu laboratory. […]
Samples collection: the healthy animals were used, weighed the bodyweight and marked at tail and cage card prior to dosing. Blood samples (0.03 mL per time point) were collected from dorsal metatarsal vein at 0.083, 0.25, 0.5, 1, 2, 4, 8, 24 h post dose for IV group and at 0.25, 0.5, 1, 2, 4, 8, 24 h post dose for PO group, the terminal time point was collected from heart (˜0.3 mL). The blood samples were put into the tube with heparin-Na coated and then put on the cold box, centrifuged at 4° C. 4000 g, 5 minutes immediately after collecting all samples per time point to get plasma. The plasma samples were stored in a freezer at −75±15° C. prior to analysis.
The drug concentration was determined by LC/MS/MS method, and the PK parameters were observed as follows.

[5] = test system: H1975 cells; test: H1975 inhibition assay (cell proliferation, CellTiter-Glo, 72 h); format: cell-based, human; conditions: Homo sapiens, NCI-H1975, 72 h, cellular proliferation, double mutant EGFR, read-out: NCI-H1975 IC50 (nM) DM
Description: H1975 Inhibition Assay (Cell Proliferation).
(§1) Test compounds were dissolved in DMSO at 30 mM.
(§2) The final concentration was 1,000 cells/well. Add medium only as low control.
(§3) After 72 hours incubation, remove the plates from incubator and equilibrate at room temperature for 15 minutes. Incubate the CellTiter Glo reagents (Promega, G9243) at 37° C. before the experiment. The buffer was equilibrated to room temperature and used to dissolve the substrate. To determine the cell viability, add 40 μL of CellTiter-Glo reagent into each well to be detected (at 1:1 to culture medium). Then the place the plates at room temperature for 30 min followed by read on EnSpire (PerkinElmer).
(§4) For estimation of IC50, the luminescence readout are transformed to % Inhibition by applying the following equation:

[6] = test system: A431 cells; test: A431 inhibition assay (cell proliferation, CellTiter-Glo, 72 h); format: cell-based, human; conditions: Homo sapiens, A-431, 72 h, cellular proliferation, wild type EGFR, read-out: A431 IC50 (nM) WT
Description: (§5) Then incubate the flasks at 37° C. until the cells detach.
as §1, §2, §3, §4

[7] = Mouse in vivo PK study; conditions: mouse, plasma, male CD1 mice, 10 mg/kg PO
[8] = test system: H1975 NSCLC cells xenograft (EGFR L858R/T790M double mutant); test: EGFR L858R/T790M double-mutant H1975 xenograft model; format: in vivo, nu/nu mice; conditions: day 10 after dosing; for Tumor Size: average ± SEM, n = 9
Description: Appropriately transformed cells, either from ATCC cell lines, known to carry the oncogene of interest, or from deliberate transfections, are suspended in appropriate media, and 5×10^6 or 1×10^7 cells are injected into the flank of nu/nu mice. Alternatively trochar placement of fragments of in vivo passaged tumors, usually about 1 mm^3 can be used to initiate the tumors. When tumors have reached an appropriate size for the experiment, usually in the 100-300 mg range, animals are randomized into matched groups of 6-10 mice, and tumor size and given vehicle or test article by perioral gavage once or twice daily. Tumor volumes are determined using calipers. The percentage increase in the volume of a xenograft tumor on day n versus day 0 (the day when dosing of the test compound began) is calculated as (tumor volume on day n−tumor volume on day 0/tumor volume on day 0)×100. The mean percentage of tumor growth inhibition in each drug-treated group relative to the vehicle-treated group is calculated as (1−mean percent increase of tumor volume in the drug-treated group/mean percent increase of the tumor volume in the vehicle-treated group)×100. Statistical significance is evaluated using a one-tailed t test.
Tumor size was measured on day 10 after dosing.

[9] = molecular target: Wild type EGFR in A431 cells (Homo sapiens, UniProt P00533); conditions: WT (A431) IC50 nM, cellular EGFR autophosphorylation, A431, 2 h treatment then EGF stimulation 10 min
[10] = molecular target: T3, IGF-1R (Homo sapiens, UniProt P08069); test: IGF-1R inhibition assay (Caliper mobility shift); format: biochemical; conditions: enzyme assay
T3 construct: purchased CARNA BIOSCIENCE 08-141
Description: Test compound was dissolved in DMSO at 30 mM. […] 20 nL of these compounds DMSO dilutes were dispensed into a new 384-well assay plate by Echo 550. […] 15 μL of kinase assay buffer containing IGF-1R protein and substrate was transferred to assay plate and incubate at RT for 30 minutes. Kinase assay buffer supplemented with substrate peptides was employed as low control to monitor the background. 40 μM ATP was prepared in kinase assay buffer containing and 5 μL of ATP solution was added to each well to start the reaction. The assay plate was incubated at 25° C. for 180 minutes and the reaction was stopped by adding 40 μL of 0.5 M EDTA.
Phosphorylated fluorescent-tagged peptides were differentiated from non-phosphorylated peptides by separating using Caliper EZ Reader II and the detection was directly converted to conversion ratio.

[11] = test system: PC-9 cells; test: PC-9 growth inhibition assay (cell proliferation, CellTiter-Glo, 72 h); format: cell-based, human; conditions: Homo sapiens, PC-9, 72 h, cellular proliferation, PC9 cells, single mutant EGFR, read-out: PC9 IC50 (nM) SM
Description: as §5, §1, §2, §3, §4

[12] = molecular target: T4, INSR (Homo sapiens, UniProt P06213); test: INSR inhibition assay (Caliper mobility shift); format: biochemical; conditions: enzyme assay
T4 construct: purchased CARNA BIOSCIENCE 08-142
T4 sequence (P06213 1005-1382 limits assumed): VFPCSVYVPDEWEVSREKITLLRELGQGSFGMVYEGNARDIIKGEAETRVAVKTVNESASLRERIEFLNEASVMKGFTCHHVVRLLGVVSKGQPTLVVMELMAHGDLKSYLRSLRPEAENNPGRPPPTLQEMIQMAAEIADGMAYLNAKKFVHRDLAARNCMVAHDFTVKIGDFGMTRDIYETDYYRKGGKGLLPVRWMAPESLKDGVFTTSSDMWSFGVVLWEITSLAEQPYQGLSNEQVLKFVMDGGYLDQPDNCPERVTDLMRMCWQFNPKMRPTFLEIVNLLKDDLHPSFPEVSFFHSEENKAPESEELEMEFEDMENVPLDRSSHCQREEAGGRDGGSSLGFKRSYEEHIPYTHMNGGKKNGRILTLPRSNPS
Description: Test compound was dissolved in DMSO at 30 mM. […] 20 nL of these compounds DMSO dilutes were dispensed into a new 384-well assay plate by Echo 550. […] 15 μL of kinase assay buffer containing INSR protein and substrate was transferred to assay plate and incubate at RT for 30 minutes. Kinase assay buffer supplemented with substrate peptides was employed as low control to monitor the background. 40 μM ATP was prepared in kinase assay buffer containing and 5 μL of ATP solution was added to each well to start the reaction. The assay plate was incubated at 25° C. for 180 minutes and the reaction was stopped by adding 40 μL of 0.5 M EDTA.
The result was analyzed in the same manner as IGF-IR.

T1 sequence (P00533 25-1210 T790M/L858R): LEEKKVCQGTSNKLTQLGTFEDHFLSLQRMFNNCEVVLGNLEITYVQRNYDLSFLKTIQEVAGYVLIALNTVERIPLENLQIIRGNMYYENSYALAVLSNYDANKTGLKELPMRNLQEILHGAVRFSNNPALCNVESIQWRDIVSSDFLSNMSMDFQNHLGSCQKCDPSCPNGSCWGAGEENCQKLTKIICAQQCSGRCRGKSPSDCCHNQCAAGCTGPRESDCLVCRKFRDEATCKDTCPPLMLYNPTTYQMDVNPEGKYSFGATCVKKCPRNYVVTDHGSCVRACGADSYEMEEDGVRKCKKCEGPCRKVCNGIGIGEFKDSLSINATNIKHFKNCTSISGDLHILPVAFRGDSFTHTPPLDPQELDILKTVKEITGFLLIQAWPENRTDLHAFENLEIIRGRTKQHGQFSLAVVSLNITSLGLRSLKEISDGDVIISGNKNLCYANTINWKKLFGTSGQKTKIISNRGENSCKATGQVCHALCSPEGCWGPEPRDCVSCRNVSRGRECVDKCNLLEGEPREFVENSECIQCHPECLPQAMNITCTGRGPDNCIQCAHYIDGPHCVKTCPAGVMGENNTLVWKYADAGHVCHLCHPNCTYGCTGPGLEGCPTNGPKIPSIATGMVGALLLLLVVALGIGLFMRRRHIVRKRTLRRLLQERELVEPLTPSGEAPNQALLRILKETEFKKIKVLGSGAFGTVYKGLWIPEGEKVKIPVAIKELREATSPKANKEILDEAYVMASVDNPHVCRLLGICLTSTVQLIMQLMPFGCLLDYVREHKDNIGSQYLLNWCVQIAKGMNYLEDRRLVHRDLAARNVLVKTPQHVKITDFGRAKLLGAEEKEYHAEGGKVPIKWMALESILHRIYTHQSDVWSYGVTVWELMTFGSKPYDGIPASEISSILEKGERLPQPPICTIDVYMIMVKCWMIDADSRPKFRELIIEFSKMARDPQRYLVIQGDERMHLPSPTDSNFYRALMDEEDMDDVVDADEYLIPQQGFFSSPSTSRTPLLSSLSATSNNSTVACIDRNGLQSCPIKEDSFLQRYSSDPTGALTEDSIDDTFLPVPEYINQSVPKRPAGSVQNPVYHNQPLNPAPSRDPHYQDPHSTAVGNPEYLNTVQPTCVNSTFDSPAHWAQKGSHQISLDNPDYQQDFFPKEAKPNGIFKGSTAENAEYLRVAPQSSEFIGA
Sequence of hERG channel (HEK 293 cell line stably expressing hERG channel) (Q12809 whole entry): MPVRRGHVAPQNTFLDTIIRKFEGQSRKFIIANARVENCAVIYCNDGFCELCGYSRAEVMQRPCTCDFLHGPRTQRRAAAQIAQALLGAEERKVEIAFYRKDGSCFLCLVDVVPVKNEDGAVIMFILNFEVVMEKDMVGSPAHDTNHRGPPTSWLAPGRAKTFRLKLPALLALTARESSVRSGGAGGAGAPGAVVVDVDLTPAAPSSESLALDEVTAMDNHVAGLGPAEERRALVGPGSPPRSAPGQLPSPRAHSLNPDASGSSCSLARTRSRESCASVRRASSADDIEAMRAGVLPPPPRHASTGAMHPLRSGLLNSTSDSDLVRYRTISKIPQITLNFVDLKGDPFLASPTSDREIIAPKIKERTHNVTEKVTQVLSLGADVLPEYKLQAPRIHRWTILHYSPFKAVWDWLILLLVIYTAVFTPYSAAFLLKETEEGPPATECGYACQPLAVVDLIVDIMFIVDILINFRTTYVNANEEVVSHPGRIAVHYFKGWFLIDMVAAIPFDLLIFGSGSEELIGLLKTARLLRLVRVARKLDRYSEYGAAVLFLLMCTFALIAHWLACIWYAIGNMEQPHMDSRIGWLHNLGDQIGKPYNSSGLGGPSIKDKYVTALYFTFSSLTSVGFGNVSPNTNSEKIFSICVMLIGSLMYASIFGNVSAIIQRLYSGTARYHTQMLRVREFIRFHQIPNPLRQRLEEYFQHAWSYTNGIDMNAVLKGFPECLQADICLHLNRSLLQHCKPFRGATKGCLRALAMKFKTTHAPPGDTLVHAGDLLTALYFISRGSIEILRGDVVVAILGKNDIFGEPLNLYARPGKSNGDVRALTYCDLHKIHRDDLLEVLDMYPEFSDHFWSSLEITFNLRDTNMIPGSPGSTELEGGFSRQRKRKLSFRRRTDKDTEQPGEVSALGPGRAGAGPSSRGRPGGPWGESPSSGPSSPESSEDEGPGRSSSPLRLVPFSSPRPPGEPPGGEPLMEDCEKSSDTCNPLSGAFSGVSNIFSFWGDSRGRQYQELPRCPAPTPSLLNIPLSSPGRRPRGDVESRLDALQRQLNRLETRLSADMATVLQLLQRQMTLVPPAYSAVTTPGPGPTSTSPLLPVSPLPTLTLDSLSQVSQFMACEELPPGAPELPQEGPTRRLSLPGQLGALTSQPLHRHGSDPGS
Sequence of Wild type EGFR in A431 cells (P00533 25-1210): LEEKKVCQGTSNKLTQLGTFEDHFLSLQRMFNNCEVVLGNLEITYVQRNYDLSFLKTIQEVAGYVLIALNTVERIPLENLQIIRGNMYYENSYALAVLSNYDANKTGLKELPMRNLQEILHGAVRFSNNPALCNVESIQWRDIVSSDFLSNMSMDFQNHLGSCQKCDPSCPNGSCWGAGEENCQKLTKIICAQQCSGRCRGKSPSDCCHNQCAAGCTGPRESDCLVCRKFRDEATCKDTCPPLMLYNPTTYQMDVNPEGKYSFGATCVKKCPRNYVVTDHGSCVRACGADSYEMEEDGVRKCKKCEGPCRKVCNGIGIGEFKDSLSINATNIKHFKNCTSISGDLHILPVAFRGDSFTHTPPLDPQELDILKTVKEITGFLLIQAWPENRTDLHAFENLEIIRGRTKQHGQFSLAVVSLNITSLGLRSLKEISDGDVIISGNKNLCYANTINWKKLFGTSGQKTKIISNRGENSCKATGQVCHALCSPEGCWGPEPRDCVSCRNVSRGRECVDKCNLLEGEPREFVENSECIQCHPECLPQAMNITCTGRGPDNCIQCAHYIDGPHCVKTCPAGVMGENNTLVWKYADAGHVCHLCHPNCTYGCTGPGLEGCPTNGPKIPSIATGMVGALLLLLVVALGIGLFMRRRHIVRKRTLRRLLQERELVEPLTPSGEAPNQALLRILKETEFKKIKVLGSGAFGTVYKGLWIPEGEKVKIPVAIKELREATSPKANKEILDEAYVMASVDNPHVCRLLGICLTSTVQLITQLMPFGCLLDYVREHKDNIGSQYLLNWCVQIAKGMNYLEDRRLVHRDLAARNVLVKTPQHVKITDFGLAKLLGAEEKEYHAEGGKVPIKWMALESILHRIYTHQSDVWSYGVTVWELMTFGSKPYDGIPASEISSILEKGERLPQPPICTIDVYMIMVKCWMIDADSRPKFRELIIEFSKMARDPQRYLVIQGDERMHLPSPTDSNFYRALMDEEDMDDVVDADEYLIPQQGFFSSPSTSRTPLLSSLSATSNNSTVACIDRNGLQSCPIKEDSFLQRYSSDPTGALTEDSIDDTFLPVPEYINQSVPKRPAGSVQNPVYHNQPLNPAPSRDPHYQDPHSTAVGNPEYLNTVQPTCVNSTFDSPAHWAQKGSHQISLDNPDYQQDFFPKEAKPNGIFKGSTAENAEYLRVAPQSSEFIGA
T3 sequence (P08069 959-1367 limits assumed): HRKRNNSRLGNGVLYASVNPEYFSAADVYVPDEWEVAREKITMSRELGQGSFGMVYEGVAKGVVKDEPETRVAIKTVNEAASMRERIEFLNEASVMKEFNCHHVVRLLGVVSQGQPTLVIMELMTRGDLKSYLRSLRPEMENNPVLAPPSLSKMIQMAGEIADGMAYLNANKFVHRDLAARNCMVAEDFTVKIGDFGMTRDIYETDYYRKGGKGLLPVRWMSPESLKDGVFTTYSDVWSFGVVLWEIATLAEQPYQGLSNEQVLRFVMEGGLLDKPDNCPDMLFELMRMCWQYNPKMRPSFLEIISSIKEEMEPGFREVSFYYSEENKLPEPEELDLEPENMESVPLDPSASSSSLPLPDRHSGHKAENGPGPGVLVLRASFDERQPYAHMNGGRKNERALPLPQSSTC

With C=CC(=O)Nc1cc(Nc2nccc(-n3nc(N(C)C)c4cc(Cl)sc43)n2)c(OC)cc1N(C)CCN(C)C [Example 6, N-(5-((4-(5-Chloro-3-(dimethylamino)-1H-thieno[2,3-c]pyrazol-1-yl)pyrimidin-2-yl)amino)-2-((2-(dimethylamino)ethyl)(methyl)amino)-4-methoxyphenyl)acrylamide] the IC50 [1] was 7.52 nM, the IC50 [2] was 8.35 nM and the IC50 [3] was 2550 nM. The F ([4]; 10 mg/kg PO) was 46.7%, the AUC ([4]; mouse, plasma) was 168 ng·h/mL and the clearance ([4]; mouse, plasma) was 100 mL/min/kg. For the same compound, the half-life ([4]; mouse, plasma, read-out: T1/2 (IV) (converted)) was 0.92 h, the IC50 [5] was 2.6 nM and the IC50 [6] was 1090 nM. For the same compound, the AUC [7] was 784 ng·h/mL, the Cmax [7] was 117 ng/mL and the half-life ([7]; read-out: T1/2 (PO) (converted)) was 2.67 h. The “TGI (tumor growth inhibition)” value ([8]; 5 mg/kg) was 99.56%, the “TRTV/CRTV (relative tumor volume)” value ([8]; 5 mg/kg) was 17.49% and the “Tumor Size” value ([8]; 5 mg/kg) was 203 ± 24 mm^3. The “TGI (tumor growth inhibition)” value ([8]; 15 mg/kg) was 114.04%, the “TRTV/CRTV (relative tumor volume)” value ([8]; 15 mg/kg) was 5.34% and the “Tumor Size” value ([8]; 15 mg/kg) was 63 ± 30 mm^3. The “TGI (tumor growth inhibition)” value ([8]; 30 mg/kg) was 117.41%, the “TRTV/CRTV (relative tumor volume)” value ([8]; 30 mg/kg) was 2.42% and the “Tumor Size” value ([8]; 30 mg/kg) was 28 ± 9 mm^3. The IC50 [9] was 72.5 nM, the IC50 [10] was 2090 nM and the IC50 [11] was 1.82 nM. For the same compound, the IC50 [12] was 2310 nM.
